Columns and labels:
Type in all cases: in vivo, human
Bifidobacteria = test: Fecal shotgun metagenomics of hospitalized liver disease patients stratified by lactulose exposure: Bifidobacteria abundance; conditions: for Regression estimate, association with Bifidobacteria abundance: Table S1, factors lactulose, PPI, stool consistency, antibiotics
[1] = 90-day survival of liver disease patients, Kaplan-Meier and Cox proportional hazards; conditions: Table S10, covariate Lactulose, Bifido >10%, model also has MELD-Na, age and sex at enrollment
Experimental: FIGS. 5A-5H: Bifidobacteria expansion and associated metabolite production are associated with decreased incidence of systemic infection and prolonged survival. (A) A Linear discriminant analysis effect size (LEfSe) showing the significant (Wilcoxon rank-sum, two-tailed, p≤0.05) effect sizes of taxa between groups. (B) Acetate (mM) and taurocholic acid (μg/mL) were quantified, and (C) conversion from conjugated-primary BA to primary BA and then to secondary BAs was tested for each sample. Each point represents a molar ratio for an individual sample. (A-C) Sample size: n=101 (no SBP), n=21 (SBP)). (D) LEfSe showing the significant (Wilcoxon rank-sum, two-tailed, p≤0.05) effect sizes of taxa between groups. (E) Acetate (mM) and taurocholic acid (μg/mL) were quantified, and (F) conversion from conjugated-primary BA to primary BA and then to secondary BAs was tested for each sample. Each point represents a molar ratio for an individual sample. (D-F) Sample size: n=227 (no bacteremia), n=19 (bacteremia)). (B,C,E, and F) Each point represents a single sample. Median and interquartile range are indicated by the horizontal line and box, respectively. The lower vertical line depicts Q1-1.5*IQR and the upper vertical line depicts Q3+1.5*IQR. Statistical comparisons between individual groups were analyzed using a two-tailed Wilcoxon rank sum test. […]

SBP = test: Spontaneous bacterial peritonitis (SBP) in liver disease patients paired with fecal samples, logistic regression
Description: FIGS. 12A-12E: Bifidobacteria expansion and associated metabolite production are associated with decreased incidence of spontaneous bacterial peritonitis (SBP). (A) Flow diagram depicting number of samples and number of patients that were filtered out at each step of analysis for SBP. (B) Taxonomic relative abundance by shotgun metagenomics of stool samples paired to ascites samples is plotted in order of decreasing Bifidobacteria abundance from left to right. Underneath each stool sample is the clinical diagnosis associated with an ascites sample (SBP (red) or not SBP (green)). (C) Volcano plot of normalized metabolite concentrations. P-values were calculated using a two-tailed Wilcoxon rank sum test and are corrected for multiple comparisons using the Benjamini-Hochberg procedure. Values with log 2 fold-change >1 (corresponding to a 2-fold change with a p-value <0.05) were considered significant. (D and E) Quantitative levels for butyrate, propionate, lithocholic acid, and alloisolithocholic acid were compared from samples associated and not associated with SBP. Units for SCFA are mM, and units for BA derivatives are in μg/mL. Each point represents a single sample. Median and interquartile range are indicated by the horizontal line and box, respectively. […] Statistical comparisons between individual groups were analyzed using a two-tailed Wilcoxon rank sum test. […]

[2] = lactulose treated patients, one sample per patient

Q: Which results are given for `OC[C@H]1O[C@@H](O[C@@H]2[C@@H](CO)OC(O)(CO)[C@H]2O)[C@H](O)[C@@H](O)[C@H]1O` (mixture of isomers) [Lactulose, lactulose]?
A: Regression estimate, association with Bifidobacteria abundance (Bifidobacteria): 0.17; Regression estimate, association with Bifidobacteria abundance (Bifidobacteria; listed as lactulose): positively associates; Bifidobacteria abundance, mean (Bifidobacteria; [2]): 22.2%; Bifidobacteria abundance, range (Bifidobacteria; [2]): 0.0-94.7%; Fecal samples having ≥10% Bifidobacteria abundance (Bifidobacteria; lactulose within 7 days prior to sample collection, one sample per patient): 45.2%; Bifidobacteria density (Bifidobacteria; patients without antibiotics in the preceding 7 days, lactulose-treated vs not): significantly increased; Estimate (Cox proportional hazards coefficient) [1]: −0.87; Exp (coef) [1]: 0.42; Samples with lactulose exposure among sbp (SBP; N = 21): (76%); Samples with lactulose exposure among no sbp (SBP; N = 101): (79%)
